Data: patent US20100113550A1, “New Crystal Forms” (BIAL - PORTELA AND CA, S.A., priority 2006, published 2010)
Entries after “also recorded” stand apart in the source; their conditions may differ. Where two headings read alike, the source gives them in different places.

Columns and labels:
Type in all cases: physicochemical
[1] = Interconversion studies of Forms A and C (slurries, XRPD); settings: interconversion in ethanol and acetone:water 99:1
Experimental: A slurry of compound 1, Form A, was prepared in a given solvent and loaded on an orbit shaker at either ambient or elevated temperature for at least 1 day. The liquid phase of the slurry was drawn off with a pipette and filtered through a 0.2-μm filter. A slurry containing compound 1 forms A and C was prepared using the filtered liquid phase from the Form A slurry. The mixture was then loaded on an orbit shaker in a sealed vial at either ambient or elevated temperature for 1 or 7 days. The solids were isolated by vacuum filtration or by drawing the liquid phase off with a pipette and allowing the solids to air dry at ambient conditions prior to analysis. The resulting Forms were characterised by XRPD.

[2] = Approximate solubilities (solvent added until a solution forms); settings: for solubility: read-out: Solubility (approximate)
Text: Approximate solubilities of compound 1, Form A in aqueous mixtures containing high concentrations of organic solvents are given in Table 1. [table]

[3] = RH stability: storage at controlled relative humidity or drying, checked by XRPD and for deliquescence; settings: high relative humidities, long periods of time
Text: Form A samples were stored at lower relative humidities of approximately 9-11, 23 and 32% RH and analyzed by XRPD and Karl-Fischer titration analysis after four weeks (Tables 30 and 31). The samples appeared to be Form A by XRPD. […] Note that the water content in the samples at 23 and 32% RH was slightly higher compared to the initial batch of Form A.
Form X samples were stored at relative humidities of approximately 43, 75 and 90% RH and analyzed by XRPD and Karl-Fischer titration analysis after five weeks (Tables 34 and 35).

[4] = as above

For `Cl.NCCc1c[nH]c(=S)n1[C@H]1COc2c(F)cc(F)cc2C1` [Form C, (R)-5-(2-Aminoethyl)-1-(6,8-difluorochroman-3-yl)-1,3-dihydroimidazole-2-thione hydrochloride], the “Relative thermodynamic stability of the forms” value [1] was “more thermodynamically stable than Form A”, the solubility ([2]; 1,4-dioxane, organic solvent or mixture, 1,4-dioxane) was under 1000 µg/mL and the solubility ([2]; 1,4-dioxane:water 9:1, organic solvent or mixture, 1,4-dioxane:water 9:1) was over 22000 µg/mL. The “Solubility (approximate)” value ([2]; 1,4-dioxane:water 99:1, hydrochloride) was under 22000 µg/mL, the “Solubility (approximate)” value ([2]; 2,2,2-trifluoroethanol, hydrochloride) was 1700 µg/mL and the solubility ([2]; THF:water 9:1, organic solvent or mixture, THF:water 9:1) was over 23000 µg/mL. For the same compound, the solubility ([2]; THF:water 99:1, organic solvent or mixture, THF:water 99:1) was under 24000 µg/mL, the “Solubility (approximate)” value ([2]; acetone:water 90:10 (9:1)) was over 23000 µg/mL and the “Solubility (approximate)” value ([2]; acetone:water 99:1, hydrochloride) was under 24000 µg/mL. The “Solubility (approximate)” value ([2]; acetone, hydrochloride) was under 1000 µg/mL, the solubility ([2]; acetonitrile, organic solvent or mixture, acetonitrile) was under 1000 µg/mL and the solubility ([2]; acetonitrile:water 4:1, organic solvent or mixture, acetonitrile:water 4:1) was over 40000 µg/mL. The “Solubility (approximate)” value ([2]; acetonitrile:water 90:10 (9:1), hydrochloride) was under 25000 µg/mL, the “Solubility compared with the other forms (in words)” value ([2]; comparison between forms) was “lower compared to the solubilities of Form A” and the solubility ([2]; dichloromethane, organic solvent or mixture, dichloromethane) was under 1000 µg/mL. The solubility ([2]; diethyl ether, organic solvent or mixture, diethyl ether) was under 1000 µg/mL, the “Solubility (approximate)” value ([2]; ethanol:water 90:10 (9:1), hydrochloride) was under 22000 µg/mL and the “Solubility (approximate)” value ([2]; ethanol, hydrochloride) was 2000 µg/mL. The solubility ([2]; ethyl acetate, organic solvent or mixture, ethyl acetate) was under 1000 µg/mL, the solubility ([2]; hexafluoro isopropanol, organic solvent or mixture, hexafluoro isopropanol) was 1000 µg/mL and the solubility ([2]; hexane, organic solvent or mixture, hexane) was under 1000 µg/mL. For the same compound, the “Solubility (approximate)” value ([2]; iso-propanol, hydrochloride) was under 1000 µg/mL, the “Solubility (approximate)” value ([2]; methanol, hydrochloride) was 21000 µg/mL and the “Solubility (approximate)” value ([2]; methyl ethyl ketone, hydrochloride) was under 1000 µg/mL. For the same compound, the solubility ([2]; n-propanol, organic solvent or mixture, n-propanol) was under 1000 µg/mL, the “Solubility by kind of solvent (in words)” value ([2]; organic solvents and aqueous mixtures, hydrochloride) was “poorly soluble in most organic solvents, except in methanol; also recorded: slightly soluble in ethanol, hexafluoroisopropanol, 2,2,2-trifluoroethanol, and some aqueous mixtures” and the “Solubility (approximate)” value ([2]; tetrahydrofuran (THF), hydrochloride) was under 1000 µg/mL. The solubility ([2]; toluene, organic solvent or mixture, toluene) was under 1000 µg/mL, the solubility ([2]; water) was 23000 µg/mL and the “Stability under high relative humidities” value [3] was “remain stable”. The Hygroscopicity [4] was “non-hygroscopic”, the “RH stability, XRPD result” value ([4]; 95% relative humidity, ~2 months) was “did not change” and the Deliquescence ([4]; approximately 65% relative humidity, one week) was “did not deliquesce”. The Deliquescence ([4]; approximately 90% relative humidity, 11 days) was “did not deliquesce”.
